The compounds below were run on uninfected Hep2 cells.

SMILES | CC50 [µM]
ClCc1nc2ccccc2n1Cc1nc2ccccc2[nH]1 [compound 1] | 50
Cc1nc(Cn2c(CN(C(C)C)C3CCCCC3)nc3ccccc32)cs1 [compound 2] | 50
COc1cc(Cn2c(CN(C(C)C)C3CCCCC3)nc3ccccc32)cc(OC)c1 [compound 3] | 50
CC(C)N(Cc1nc2ccccc2n1Cc1c2ccccc2nc2ccccc12)C1CCCCC1 [compound 10] | ≥ 100
COC(=O)c1ccc2nc(CN3CCOCC3)n(Cc3nc4ccccc4[nH]3)c2c1 [compound 11] | 26
CC(C)N(Cc1nc2ccccc2n1Cc1cccc(Oc2ccccc2)c1)C1CCCCC1 [compound 12] | ≥ 100
CC(C)N(Cc1nc2ccccc2n1Cc1ccc(S(C)(=O)=O)cc1)C1CCCCC1 [compound 13] | ≥ 100
CSc1ccc(Cn2c(CN(C(C)C)C3CCCCC3)nc3ccccc32)cc1 [compound 14] | 30
CCCN(Cc1nc2ccccc2n1Cc1ccc2ccccc2n1)CC1CC1 [compound 20] | 50
CCCN(Cc1nc2ccccc2n1Cc1csc(C)n1)CC1CC1 [compound 21] | 50
CCCN(Cc1nc2ccccc2n1Cc1c2ccccc2nc2ccccc12)CC1CC1 [compound 23] | ≥ 101
CCCN(Cc1nc2ccccc2n1Cc1cc(F)cc2c1OCOC2)CC1CC1 [compound 24] | 82
CCCN(Cc1nc2ccccc2n1Cc1cccc(Oc2ccccc2)c1)CC1CC1 [compound 25] | ≥ 101
CCCN(Cc1nc2ccccc2n1Cc1ccc(S(C)(=O)=O)cc1)CC1CC1 [compound 26] | 97
Cc1nc(Cn2c(CN(Cc3ccccc3)C(C)C)nc3ccccc32)cs1 [compound 40] | 50
c1ccc2nc(Cn3c(CN4CCCCC4)nc4ccccc43)ccc2c1 [compound 50] | 50
Cc1nc(Cn2c(CN3CCCCC3)nc3ccccc32)cs1 [compound 51] | 50
O=[N+]([O-])c1ccc(Cn2c(CN3CCCCC3)nc3ccccc32)o1 [compound 54] | 97
Fc1cc2c(c(Cn3c(CN4CCCCC4)nc4ccccc43)c1)OCOC2 [compound 59] | ≥ 100
CS(=O)(=O)c1ccc(Cn2c(CN3CCCCC3)nc3ccccc32)cc1 [compound 60] | ≥ 100
CSc1ccc(Cn2c(CN3CCCCC3)nc3ccccc32)cc1 [compound 61] | 20
FC(F)(F)Oc1ccccc1Cn1c(CN2CCCCC2)nc2ccccc21 [compound 62] | 34
c1ccc2c(Cn3c(CN4CCCCC4)nc4ccccc43)c3ccccc3nc2c1 [compound 72] | ≥ 100

SMILES | CC50 [µM]
Fc1cc2c(c(Cn3c(CN4CCCCC4)nc4ccccc43)c1)OCOC2 [compound 73] | 101
c1ccc(Oc2cccc(Cn3c(CN4CCCCC4)nc4ccccc43)c2)cc1 [compound 74] | 10
FC(F)(F)Oc1ccccc1Cn1c(CN2CCCCC2)nc2ccccc21 [compound 75] | 24
CSc1ccc(Cn2c(CN3CCCCC3)nc3ccccc32)cc1 [compound 76] | 11
O=[N+]([O-])c1ccc(Cn2c(CN3CCCCC3)nc3ccccc32)o1 [compound 77] | ≥ 100
c1ccc2[nH]c(Cn3c(CN4CCCCC4)nc4ccccc43)nc2c1 [compound 79] | ≥ 100
CN1CCC(N(C)Cc2nc3ccccc3n2Cc2nc3ccccc3[nH]2)CC1 [compound 80] | 58
CCN(Cc1nc2ccccc2n1Cc1nc2ccccc2[nH]1)C(C)C [compound 81] | 63
CC(C)N(C)Cc1nc2ccccc2n1Cc1nc2ccccc2[nH]1 [compound 82] | 25
C=CCN(C)Cc1nc2ccccc2n1Cc1nc2ccccc2[nH]1 [compound 83] | 58
CN(C)CCN(C)Cc1nc2ccccc2n1Cc1nc2ccccc2[nH]1 [compound 84] | ≥ 100
CN(Cc1ccco1)Cc1nc2ccccc2n1Cc1nc2ccccc2[nH]1 [compound 85] | ≥ 100
CC(C)CCN(CCC(C)C)Cc1nc2ccccc2n1Cc1nc2ccccc2[nH]1 [compound 87] | ≥ 100
CCCCCCN(C)Cc1nc2ccccc2n1Cc1nc2ccccc2[nH]1 [compound 88] | ≥ 100
C=C(C)CN(CC)Cc1nc2ccccc2n1Cc1nc2ccccc2[nH]1 [compound 89] | ≥ 100
C#CCN(C)Cc1nc2ccccc2n1Cc1nc2ccccc2[nH]1 [compound 90] | ≥ 100
CCCCCN(C)Cc1nc2ccccc2n1Cc1nc2ccccc2[nH]1 [compound 91] | 80
CCCCN(CC)Cc1nc2ccccc2n1Cc1nc2ccccc2[nH]1 [compound 92] | 68
C#CCCN(C)Cc1nc2ccccc2n1Cc1nc2ccccc2[nH]1 [compound 94] | 16
COC(=O)CN(C)Cc1nc2ccccc2n1Cc1nc2ccccc2[nH]1 [compound 95] | ≥ 100
CCN(CCO)Cc1nc2ccccc2n1Cc1nc2ccccc2[nH]1 [compound 96] | ≥ 100
CN(Cc1nc2ccccc2n1Cc1nc2ccccc2[nH]1)CC(O)c1ccc(O)cc1 (stereo not shown) [compound 97] | 77
CN(CCc1ccccn1)Cc1nc2ccccc2n1Cc1nc2ccccc2[nH]1 [compound 98] | ≥ 100

SMILES | CC50 [µM]
CCN(Cc1ccncc1)Cc1nc2ccccc2n1Cc1nc2ccccc2[nH]1 [compound 99] | ≥ 100
CCCCN(CCCC)CCCNCc1nc2ccccc2n1Cc1nc2ccccc2[nH]1 [compound 100] | 9.3
CN(C)CCCN(CCCN(C)C)Cc1nc2ccccc2n1Cc1nc2ccccc2[nH]1 [compound 101] | ≥ 100
N=C(N)NCc1nc2ccccc2n1Cc1nc2ccccc2[nH]1 [compound 104] | ≥ 100
c1ccc2[nH]c(Cn3c(CNCCCn4ccnc4)nc4ccccc43)nc2c1 [compound 105] | 26
CCCCCCCCN(CCCCCCCC)Cc1nc2ccccc2n1Cc1nc2ccccc2[nH]1 [compound 106] | 74
CC(C)N(Cc1nc2ccccc2n1Cc1nc2ccccc2[nH]1)CC(O)c1ccc(O)c(O)c1 (stereo not shown) [compound 107] | ≥ 100
COc1ccc(N(C)Cc2nc3ccccc3n2Cc2nc3ccccc3[nH]2)cc1 [compound 110] | ≥ 100
CN(Cc1nc2ccccc2n1Cc1nc2ccccc2[nH]1)C(c1ccccc1)c1ccccc1 [compound 111] | ≥ 100
CN1CCN(CCCNCc2nc3ccccc3n2Cc2nc3ccccc3[nH]2)CC1 [compound 112] | ≥ 100
c1cncc(CNCc2nc3ccccc3n2Cc2nc3ccccc3[nH]2)c1 [compound 113] | ≥ 100
Fc1ccc(F)c(CNCc2nc3ccccc3n2Cc2nc3ccccc3[nH]2)c1 [compound 114] | ≥ 100
FC(F)(F)Oc1ccc(CNCc2nc3ccccc3n2Cc2nc3ccccc3[nH]2)cc1 [compound 115] | ≥ 100
COCCCNCc1nc2ccccc2n1Cc1nc2ccccc2[nH]1 [compound 116] | ≥ 100
OCCNCc1nc2ccccc2n1Cc1nc2ccccc2[nH]1 [compound 117] | ≥ 100
c1ccc2[nH]c(Cn3c(CNC4CC5CCC4C5)nc4ccccc43)nc2c1 (stereo not shown) [compound 119] | ≥ 100
COc1ccc(CCNCc2nc3ccccc3n2Cc2nc3ccccc3[nH]2)cc1 [compound 120] | ≥ 100
COc1cc(CNCc2nc3ccccc3n2Cc2nc3ccccc3[nH]2)cc(OC)c1 [compound 122] | ≥ 100
CCNCc1nc2ccccc2n1Cc1nc2ccccc2[nH]1 [compound 123] | ≥ 100
c1ccc2[nH]c(Cn3c(CNCCCN4CCOCC4)nc4ccccc43)nc2c1 [compound 124] | ≥ 100
c1ccc(CCNCc2nc3ccccc3n2Cc2nc3ccccc3[nH]2)nc1 [compound 125] | ≥ 100
Fc1ccc(CNCc2nc3ccccc3n2Cc2nc3ccccc3[nH]2)cc1 [compound 126] | ≥ 100
FC(F)(F)Oc1cccc(CNCc2nc3ccccc3n2Cc2nc3ccccc3[nH]2)c1 [compound 127] | ≥ 100

SMILES | CC50 [µM]
CCCNCc1nc2ccccc2n1Cc1nc2ccccc2[nH]1 [compound 128] | ≥ 100
CC(C)OCCCNCc1nc2ccccc2n1Cc1nc2ccccc2[nH]1 [compound 129] | ≥ 100
c1ccc(C(CNCc2nc3ccccc3n2Cc2nc3ccccc3[nH]2)c2ccccc2)cc1 [compound 132] | ≥ 100
COc1cccc(CCNCc2nc3ccccc3n2Cc2nc3ccccc3[nH]2)c1 [compound 135] | ≥ 100
c1ccc2[nH]c(Cn3c(CNCCCn4ccnc4)nc4ccccc43)nc2c1 [compound 136] | ≥ 100
c1ccc(CN2CCC(NCc3nc4ccccc4n3Cc3nc4ccccc4[nH]3)CC2)cc1 [compound 137] | 95
Clc1ccc(CNCc2nc3ccccc3n2Cc2nc3ccccc3[nH]2)cc1Cl [compound 138] | 6.5
FC(F)(F)c1ccccc1CNCc1nc2ccccc2n1Cc1nc2ccccc2[nH]1 [compound 139] | 18
O=C1CCCN1CCCNCc1nc2ccccc2n1Cc1nc2ccccc2[nH]1 [compound 141] | 35
c1csc(CNCc2nc3ccccc3n2Cc2nc3ccccc3[nH]2)c1 [compound 142] | ≥ 100
COc1ccc(CNCc2nc3ccccc3n2Cc2nc3ccccc3[nH]2)cc1 [compound 146] | ≥ 100
c1ccc2[nH]c(Cn3c(CNCCCN4CCCC4)nc4ccccc43)nc2c1 [compound 147] | ≥ 100
CCN(CC)CCCC(C)NCc1nc2ccccc2n1Cc1nc2ccccc2[nH]1 (stereo not shown) [compound 148] | ≥ 100
c1ccc(CN2CCC(NCc3nc4ccccc4n3Cc3nc4ccccc4[nH]3)C2)cc1 (stereo not shown) [compound 149] | 39
Clc1ccccc1CNCc1nc2ccccc2n1Cc1nc2ccccc2[nH]1 [compound 150] | ≥ 100
FC(F)(F)c1ccc(CNCc2nc3ccccc3n2Cc2nc3ccccc3[nH]2)cc1 [compound 151] | ≥ 100
CC(C)NCc1nc2ccccc2n1Cc1nc2ccccc2[nH]1 [compound 152] | ≥ 100
c1coc(CNCc2nc3ccccc3n2Cc2nc3ccccc3[nH]2)c1 [compound 154] | ≥ 100
Clc1cccc(CNCc2nc3ccccc3n2Cc2nc3ccccc3[nH]2)c1 [compound 157] | ≥ 100
O=C1CCCN1CCCNCc1nc2ccccc2n1Cc1nc2ccccc2[nH]1 [compound 158] | ≥ 100
CCOCCCNCc1nc2ccccc2n1Cc1nc2ccccc2[nH]1 [compound 159] | ≥ 100
CC1CCCCN1CCCNCc1nc2ccccc2n1Cc1nc2ccccc2[nH]1 (stereo not shown) [compound 160] | 88

From patent publication US7030150B2, “Benzimidazole compounds and antiviral uses thereof” (Trimeris, Inc., priority 2001, dated 2006)
